Assay results from the NIST ThermoML archive (doi:10.1021/je050183a).
Numbers after ± are expanded uncertainties.

How the values were obtained:
[1] = refractive index (Na D-line) (dimensionless); conditions: 298.15 K; 101.33 kPa; Liquid; Standard Abbe refractometry
[2] = 101 kPa, Liquid; for viscosity: Capillary tube (Ostwald / Ubbelohde) method; for speed of sound: Linear variable-path acoustic interferometer; for mass density: Pycnometric method
[3] = xn = mol fraction of the nth substance listed; conditions: 101 kPa, Liquid; for viscosity: Capillary tube (Ostwald / Ubbelohde) method; for speed of sound: Linear variable-path acoustic interferometer; for mass density: Pycnometric method
[4] = refractive index (Na D-line) (dimensionless); xn = mol fraction of the nth substance listed; conditions: 298.15 K, 101 kPa, Liquid, Standard Abbe refractometry

CC1OC(C)OC(C)O1 (configuration not stated) [2,4,6-trimethyl-1,3,5-trioxane]
Conditions	refractive index
[1]	1.4029 ± 0.0008

[2]
Conditions	mass density [kg/m3]	speed of sound [m/s]	viscosity [mPa·s]
288.15 K	999.69 ± 1.3	1217.7 ± 2.7	1.374 ± 0.018
298.15 K	988.35 ± 1.3	1174.5 ± 2.6	1.107 ± 0.015

CC1OC(C)OC(C)O1 (configuration not stated) [2,4,6-trimethyl-1,3,5-trioxane] + CC1COC(=O)O1
[3]
Conditions	mass density, 288.15 K [kg/m3]	mass density, 298.15 K [kg/m3]	speed of sound, 288.15 K [m/s]	speed of sound, 298.15 K [m/s]	viscosity, 288.15 K [mPa·s]	viscosity, 298.15 K [mPa·s]
x1 = 0.091	1181.68 ± 1.5	1170.78 ± 1.4	1451.8 ± 2.8	1415 ± 2.8	2.966 ± 0.038	2.386 ± 0.032
x1 = 0.2019	1151.81 ± 1.5	1141.1 ± 1.4	1420.2 ± 2.8	1382.6 ± 2.8	2.809 ± 0.036	2.245 ± 0.03
x1 = 0.3007	1127.63 ± 1.4	1117.02 ± 1.4	1392.9 ± 2.8	1354.5 ± 2.8	2.661 ± 0.035	2.116 ± 0.028
x1 = 0.4055	1104.07 ± 1.4	1093.5 ± 1.4	1364.7 ± 2.8	1325.5 ± 2.7	2.494 ± 0.033	1.977 ± 0.027
x1 = 0.5011	1084.21 ± 1.4	1073.63 ± 1.4	1339.7 ± 2.8	1299.9 ± 2.7	2.333 ± 0.031	1.846 ± 0.025
x1 = 0.6022	1064.71 ± 1.4	1054.05 ± 1.3	1314 ± 2.7	1273.4 ± 2.7	2.155 ± 0.028	1.705 ± 0.023
x1 = 0.7006	1046.98 ± 1.4	1036.19 ± 1.4	1289.8 ± 2.7	1248.5 ± 2.7	1.974 ± 0.026	1.563 ± 0.021
x1 = 0.8028	1029.73 ± 1.4	–	1265.5 ± 2.7	–	1.779 ± 0.023	–
x1 = 0.9027	1014 ± 1.4	–	1242.1 ± 2.7	–	1.581 ± 0.021	–
x1 = 1	999.69 ± 1.4	–	1217.7 ± 2.7	–	1.374 ± 0.018	–

[4]
Conditions	refractive index
x1 = 0.091	1.4188 ± 0.0008
x1 = 0.2019	1.4172 ± 0.0008
x1 = 0.3007	1.4157 ± 0.0008
x1 = 0.4055	1.4142 ± 0.0008
x1 = 0.5011	1.4127 ± 0.0008
x1 = 0.6022	1.4111 ± 0.0008
x1 = 0.7006	1.4094 ± 0.0008

CC1COC(=O)O1 (configuration not stated) [4-methyl-1,3-dioxolan-2-one]
Conditions	refractive index
[1]	1.4203 ± 0.0008

[2]
Conditions	mass density [kg/m3]	speed of sound [m/s]	viscosity [mPa·s]
288.15 K	1208.67 ± 1.5	1478.4 ± 2.8	3.086 ± 0.04
298.15 K	1197.58 ± 1.5	1442.3 ± 2.8	2.499 ± 0.033

CC1COC(=O)O1 (configuration not stated) [4-methyl-1,3-dioxolan-2-one] + CC1OC(C)OC(C)O1
[3], x2 = 0
Conditions	mass density [kg/m3]	speed of sound [m/s]	viscosity [mPa·s]
288.15 K	1208.67 ± 1.5	1478.4 ± 2.8	3.086 ± 0.04
298.15 K	1197.58 ± 1.5	1442.3 ± 2.8	2.499 ± 0.033

Conditions	refractive index
[4], x2 = 0	1.4203 ± 0.0008

CCOC(=O)OCC [diethyl carbonate]
Conditions	refractive index
[1]	1.383 ± 0.0008

[2]
Conditions	mass density [kg/m3]	speed of sound [m/s]	viscosity [mPa·s]
288.15 K	980.41 ± 1.3	1225.6 ± 2.7	0.868 ± 0.011
298.15 K	969.15 ± 1.3	1173.4 ± 2.7	0.749 ± 0.01

CCOC(=O)OCC [diethyl carbonate] + CC1OC(C)OC(C)O1
[3], x2 = 0
Conditions	mass density [kg/m3]	speed of sound [m/s]	viscosity [mPa·s]
288.15 K	980.41 ± 1.3	1225.6 ± 2.7	0.868 ± 0.011
298.15 K	969.15 ± 1.3	1173.4 ± 2.7	0.749 ± 0.01

Conditions	refractive index
[4], x2 = 0	1.383 ± 0.0008

COC(=O)OC [dimethyl carbonate]
Conditions	refractive index
[1]	1.366 ± 0.0008

[2]
Conditions	mass density [kg/m3]	speed of sound [m/s]	viscosity [mPa·s]
288.15 K	1076.43 ± 1.5	1242 ± 2.7	0.647 ± 0.009
298.15 K	1063.1 ± 1.5	1197.4 ± 2.7	0.579 ± 0.008

COC(=O)OC [dimethyl carbonate] + CC1OC(C)OC(C)O1
[3], x2 = 0
Conditions	mass density [kg/m3]	speed of sound [m/s]	viscosity [mPa·s]
288.15 K	1076.43 ± 1.5	1242 ± 2.7	0.647 ± 0.009
298.15 K	1063.1 ± 1.5	1197.4 ± 2.7	0.579 ± 0.008

Conditions	refractive index
[4], x2 = 0	1.366 ± 0.0008
